These results are taken from article PMC7876106 (Scientific Reports, 2021).

Assay [1] relates to telomere repeat DNA in LOX cells. Description: Telomere length analysis (PFGE, Southern blot) of LOX cells. The assay is classed as cell-based, human. As to conditions: TLA. On the procedure: Genomic DNA was isolated from cells using a genomic DNA purification kit (Promega) and digested with AluI and MboI. Digested genomic DNA was purified by phenol/choloroform extraction and quantified using a Qubit 4 Fluorometer (Thermal Scientific). Equal amounts of digested DNA (5 μg) were separated by pulse-field gel electrophoresis (PFGE) performed with a 1% agarose gel at 6V/cm, switch times from 1 to 12s, 15 °C for 12h using CHEF-DRIII system (Bio-Rad). The DNA was transferred to GeneScreen Plus blotting membranes (Perkin-Elmer) and analyzed by Southern blot. The blots were hybridized with a 32P-labeled telomere repeat or […]
Alu probe at 42 °C overnight, then washed twice for 5 min each with 0.2 M wash buffer (0.2 M Na2HPO4 pH 7.2, 1 mM EDTA, and 2% SDS) at room temperature and once for 10 min with 0.1 M wash buffer at 42°C. Relative telomere-repeat signals were determined by Typhoon 9410 Imager and ImageQuant TL software (GE Healthcare). Signal intensity represents the percentage decrease of average telomere signals relative to dox (-) or PP control. […]
(§1) 100, 1 mM EDTA in 1x PBS) before immuno-staining. Primary antibodies were prepared in blocking solution at following dilutions: anti-53BP1 (1:500, IHC-00001; Bethyl Laboratories) and γH2AX (1:2,000, A300-081A; Bethyl Laboratories). After IF, cells were fixed in 4% paraformaldehyde in 1x PBS for 10 min, washed in 1x PBS, dehydrated in ethanol series (70%, 95%, 100%), and air-dried. Coverslips were denatured for 5 min at 80-85° C in hybridization mix [70% formamide, 10 mM Tris-HCl, pH 7.2, and 0.5% blocking solution (Roche)] containing telomeric PNA-Cy3-(CCCTAA)3 probe, and hybridization was continued for 2 hrs at room temperature in the dark moisturized chambers. Coverslips were washed twice for 15 min each with 70% formamide, 10 mM Tris-HCl (pH 7.2), and 0.1% BSA, and followed by three washes for 5 min each with 0.15 M NaCl, 0.1 M Tris-HCl (pH 7.2), and 0.08% Tween-20. Nuclei were counterstained with 0.1 µg/ml DAPI in blocking solution and coverslips mounted with VectorShield (Vector Laboratories). RNA FISH was performed as previously described 1.
Images were captured with a 100x lens on a Nikon E600 Upright microscope (Nikon

Assay [2] has as its system TeloDNA (5'-fluorescein) (DNA, G4) TTAGGGTTAGGGTTAGGGTTAGGG
Description: fluorescence polarization. As to conditions: 20 mM HEPES pH 7.5, room temperature; for binding: 150 mM salt (KCl, NaCl or LiCl; which not stated), tRNA competitor, dilutions from 50 μM compound.

Assay [3] has as its system TERRA (5'-fluorescein) (RNA, G4) UUAGGGUUAGGGUUAGGGUUAGGG
Description: fluorescence polarization. As to conditions: 20 mM HEPES pH 7.5, room temperature; for binding: 150 mM salt (KCl, NaCl or LiCl; which not stated), tRNA competitor, dilutions from 50 μM compound.

For a further assay, the target named is G4 TeloDNA. In words: FP assay, compound binding to 5′ fluorescein-labeled TeloDNA. As for the experimental part:
(§2) All the nucleic acids, peptides and chemicals were dissolved in buffer containing 20 mM HEPES pH7.5, 150 mM salt (KCl, NaCl, LiCl) at the stock concentration of 1 mM. For peptide and nucleic acid interactions, 25μL of each nucleic acids with a sequential twofold dilutions starting from 50 μM was added into each well of 96-well plate followed by adding 25μL of 10 nM FITC labeled TRF2 peptide. For compounds and nucleic acid interactions, 20μL of each compounds with a sequential twofold dilutions starting from 50 μM were added into each well of 96-well plate followed by adding 5μL of 20 ng/mL tRNA and 25μL of 10 nM FAM labeled nucleic acids. For inhibition assay, 5μL FITC labeled TRF2 GAR peptide (10 nM final concentration) and 10 μL oligos (5 μM final concentration) were mixed, followed by adding 5μL of each compound with a sequential twofold dilutions starting from 50 μM into each well of 384-well plate. All components were mixed thoroughly, and the plate was incubated at room temperature for 1 h before placing in an Envision Plate Reader for reading at 495/520 nm. All data curves were fitted using Prism 8.0.

The next assay deals with TERRA in LOX cells. In words: TERRA levels by RNA dot blot and Northern blot in LOX cells. It counts as cell-based, human.
In assay [4] the target is TERRA. In words: FP assay, compound binding to 5′ fluorescein-labeled TERRA. As for the experimental part: as §2
Another assay has as its target EBNA1 G4 RNA. In words: FP assay, compound binding to EBNA1 G4 RNA. As for the experimental part: as §2
Another assay addresses TeloDNA and TRF2 complex. Description: FP inhibition assay, TRF2 GAR binding to TeloDNA. As for the experimental part: as §2
Assay [5] relates to TeloDNA (unlabelled) (DNA, G4) TTAGGGTTAGGGTTAGGGTTAGGG
In words: fluorescence polarization, displacement of TRF2 GAR peptide. Conditions: 150 mM salt (KCl, NaCl or LiCl; which not stated); 20 mM HEPES pH 7.5, room temperature; FITC-TRF2 GAR peptide 10 nM; 5 μM oligo; dilutions from 50 μM compound. For orientation: In fluorescence polarisation assays a small probe gives low polarisation when free and higher when bound to something large.

Assay [6] concerns TERRA. Description: CD spectroscopy of TERRA mixed with compound. Conditions: 1:1 molar ratio, 150 mM KCl buffer. As for the experimental part: All nucleic acids were dissolved in buffer containing 20 mM HEPES pH7.5, 150 mM salt (KCl or LiCl), 20% PEG8000 at the concentration of 10 μM for experiments. A J-815 spectrometer equipped with a PFD-425S Peltier cell holder was used to measure CD spectra at 4 °C between 200 and 340 nm to determine the secondary structure content of various oligo constructs. The molar ellipticity was calculated and the plot was made using Excel.

The subject of assay [7] is TRF2 binding to telomere DNA. Description: DNA ChIP assay of TRF2 binding to telomere DNA in LOX cells. As to conditions: 2 μM, 2 days. It counts as cell-based, human. On the procedure:
The lysates were sonicated, cleared by centrifugation, and supernatants were diluted 10 fold into IP Buffer (0.01% SDS, 1.1% Triton X-100, 1.2mM EDTA, 16.7mM Tris pH 8.1, 167mM NaCl, protease inhibitors cocktail, 50U/ml SUPERase•in) for IP reaction with rabbit IgG (Santa Cruz Biotechnology) or rabbit polyclonal anti-TRF2 (Pocono Rabbit Farm) at 4 ° C overnight. Each immune complex was collected by Dynal A beads (Invitrogen), washed five times (1 ml wash, 10 mins each) in ChIP related wash buffer at 4 ° C, eluted by addition of 200µl Elution buffer (10mM Tris, pH 8.0, 5mM EDTA, 1% SDS, 50U/ml SUPERase.In) at 70 °C for 20 mins, and the elutes were placed at 70 °C for 2 hrs to reverse cross-linking. […]
DNA ChIP assays was performed as described previously 3 with minor modifications. Briefly, 1 x 10^7 LOX cells treated with indicated chemicals (2 µM) for 48 hrs were subject to ChIP analysis and immunoprecipitated DNA was assayed by DNA dot-blot using 32P-labeled (TTAGGG)4 or Alu probe. […]

Assay [8] has as its system TERRA (unlabelled) (RNA, G4) UUAGGGUUAGGGUUAGGGUUAGGG
Description: fluorescence polarization, displacement of TRF2 GAR peptide. As to conditions: 150 mM salt (KCl, NaCl or LiCl; which not stated); 20 mM HEPES pH 7.5, room temperature; FITC-TRF2 GAR peptide 10 nM; 5 μM oligo; dilutions from 50 μM compound.

The target in the next assay is TERRA and TRF2 complex. Description: FP inhibition assay, TRF2 GAR binding to TERRA. Conditions: FP. As for the experimental part:
as §2

Assay [9] relates to TeloDNA antisense (5'-fluorescein) (DNA, single strand) CCCTAACCCTAACCCTAACCCTAA
Description: fluorescence polarization. Conditions: 150 mM salt (KCl, NaCl or LiCl; which not stated); 20 mM HEPES pH 7.5, room temperature, tRNA competitor; dilutions from 50 μM compound.

Another assay relates to LOX cells. In words: TIF assay (IF FISH, γH2AX or 53BP1 with telomere DNA) in LOX cells. The assay is classed as cell-based, human. As to conditions: 2 μM, 3 days. On the procedure:
Mei et al, 2020 TERRA Requires TRF2 GAR Domain […]
as §1, with “Indirect immunofluorescence (IF) combined with fluorescence in situ hybridization (FISH) analysis for telomere dysfunction was performed as described 4 with some modifications. Briefly, cells grown on coverslips were fixed for 15 min in 2% paraformaldehyde/1x PBS at RT, followed by permeabilization for 10 min in 1x PBS/0.5% Triton X-100 at RT. After washing with 1x PBS, cells were incubated for 60 min in blocking solution (0.5% BSA, 0.2% fish gelatin, 0.1% Triton X-100,” for “100,”
Images were captured with a 100x lens on a Nikon E600 Upright microscope (Nikon […]
Instruments, Inc., Melville, NY) with ImagePro Plus software (Media Cybernetics, Silver Spring, MD) for image processing. Cells with > 5 53BP1/γH2AX foci co-localizing with telomere DNA foci were scored as positive for TIF. The quantification was generated from at least three independent Immuno-FISH experiments. […]
0.1 μg/mL DAPI in 1x PBS and slides were mounted with VectorShield (Vector Laboratories).
Images were taken with a 100x lens on a Nikon E600 Upright microscope (Nikon Instruments) using ImagePro Plus software (Media Cybernetics) for image processing. Statistical analysis was performed using two-tailed Student t Test.

For assay [10], the system named is TERRA antisense (5'-fluorescein) (RNA, single strand) CCCUAACCCUAACCCUAACCCUAA
In words: fluorescence polarization. As to conditions: 150 mM salt (KCl, NaCl or LiCl; which not stated); 20 mM HEPES pH 7.5, room temperature, tRNA competitor; dilutions from 50 μM compound.

[11] abbreviates: 150 mM KCl, NaCl or LiCl (salt not specified), 20 mM HEPES, tRNA competitor added, 10 nM probe, apparent.
Setting [12] is: 10 nM fluorescein-labeled probe, 3 independent experiments.

Structures are written as SMILES.

In the case of `NCCOc1cc(C(=O)Nc2cc(OCCN)c3ccccc3n2)nc(C(=O)Nc2cc(OCCN)c3ccccc3n2)c1` [PDS, pyridostatin], the “telomere repeat DNA signals” value in assay [1] is reported as “to a lesser extent”. For the same compound, the concentration for a half-maximal effect (EC50) in [2] (setting [11]) stood at 0.05 µM; in assay [3] (setting [11]), 0.66 µM; at G4 TeloDNA (setting [12]) it was 0.05 µM; on TERRA [4] (setting [12]) it was 0.66 µM; at EBNA1 G4 RNA, 0.199 µM. In addition, the “total TERRA levels relative to PP control” value with TERRA in LOX cells (2 μM, 3 days, RNA dot blot and Northern blot) was “also reduced TERRA levels”. The “binding to EBNA1 G4 RNA” value in the assay on EBNA1 G4 RNA was “high binding affinity”.
For `C[n+]1cc(NC(=O)c2ccc3ccc4ccc(C(=O)Nc5cc6ccccc6[n+](C)c5)nc4c3n2)cc2ccccc21` [Phen-DC3], the binding entry in assay [2] and in [3] was “no” each time. The “binding activity for G4 TeloDNA” value with G4 TeloDNA was “only PDS bound”. For the same compound, the “binding to TERRA” value in the assay on TERRA [4] is reported as “only PDS bound”.
`C=CC1=C(C)c2cc3[nH]c(cc4nc(cc5[nH]c(cc1n2)c(C)c5CCC(=O)O)C(CCC(=O)O)=C4C)c(C)c3C=C` [PP, protoporphyrin IX]: at TeloDNA and TRF2 complex, the “IC50 for TRF2 GAR-TeloDNA” value is “no measurable IC50”. The binding result in assay [5], in assay [2], in assay [3], in assay [8], in assay [9] and in assay [10] was “no” throughout. The “alteration of CD spectrum of TERRA at major peak (~260 nm)” value in the assay on TERRA [6] is “not BRACO-19 or PP altered the CD spectrum”. Moreover, in the assay with G4 TeloDNA, the “binding activity for G4 TeloDNA” value was “no binding activity”. In [7], the “effect on TRF2 binding to telomere DNA” value is recorded as “Neither NMM, PP, nor BRACO-19 had any significant effect”. In the assay on TERRA in LOX cells (2 μM, 3 days, Northern blot), the “accumulation of TERRA as a shorter form” value is “not observed”. In the assay on TERRA [4], the “binding to TERRA” value is recorded as “no measurable affinity”. Besides, the “IC50 for TRF2 GAR-TERRA” value at TERRA and TRF2 complex is “no measurable IC50”. Moreover, the “level of γH2AX or 53BP1 associated telomere dysfunction-induced foci (TIFs)” value in the assay with LOX cells is “equivalent to background”. In the assay with EBNA1 G4 RNA, the “binding to EBNA1 G4 RNA” value is listed as “did not display any binding”.
For `C[C@H]1c2cccc(O)c2C(=O)C2=C(O)[C@]3(O)C(=O)C(C(N)=O)=C(O)[C@@H](N(C)C)[C@@H]3[C@@H](O)[C@@H]21` [Dox, doxycycline], in the assay with TERRA in LOX cells (doxycycline 1 µg/ml, 2 days, RNA dot blot), the “effect of Dox treatment on TERRA” value is “no effect on TERRA”.
Turning to `COS(=O)(=O)[O-].Cc1cc2c3c([n+](C)c4ccc(F)cc4c3c1)-c1cc(F)ccc1N2C` [RHPS4, acridinium methosulfate], the binding result in [2] and in [3] was “no” each time. In the assay on G4 TeloDNA, the “binding activity for G4 TeloDNA” value is given as “only PDS bound”. Further, in the assay with TERRA [4], the “binding to TERRA” value is “only PDS bound”.

Usually EC50 stands for the concentration needed to bring the measured effect to its halfway point.
